# Reference: ChEMBL document CHEMBL5257063, “Dendrillic Acids A and B: Nitrogenous, Rearranged Spongian Nor-Diterpenes from a Dendrilla sp. Marine Sponge” (J Nat Prod, 2023)
# System: not listed separately
# Assay: Cytotoxicity against human NFF cells incubated for 96 hrs by resazurin dye based assay
# Assay type: toxicity, cell-based
# Details: read-out: MIC
row,Compound,MCC at 96 h [µg/mL]
1,C[C@H]1c2c([C@@]3(C)CCCC(C)(C)C3)ccc(C(=O)O)c2C(=O)N1CC(=O)O,> 100
2,C[C@@H]1c2c([C@@]3(C)CCCC(C)(C)C3)ccc(C(=O)O)c2C(=O)N1CC(=O)O,> 100
3,CSC[S@@+]([O-])CC(CO)NC(=O)/C=C/c1c(C)[nH]c(=O)[nH]c1=O (some centres undefined) [SPARSOMYCIN],0.6

# System: Bacillus subtilis
# Assay: Antibacterial activity against Bacillus subtilis ATCC 6633 measured after 48 hrs by resazurin reagent based assay
# Assay type: functional
# Details: not given
row,MIC [µg/mL],Compound
1,6.3,CN(C)[C@@H]1C(O)=C(C(N)=O)C(=O)[C@@]2(O)C(O)=C3C(=O)c4c(O)cccc4[C@@](C)(O)[C@H]3C[C@@H]12 [TETRACYCLINE]
2,> 100,C[C@H]1c2c([C@@]3(C)CCCC(C)(C)C3)ccc(C(=O)O)c2C(=O)N1CC(=O)O
3,> 100,C[C@@H]1c2c([C@@]3(C)CCCC(C)(C)C3)ccc(C(=O)O)c2C(=O)N1CC(=O)O

# System: not listed separately
# Assay: Cytotoxicity against mouse NS-1 cells incubated for 96 hrs by resazurin dye based assay
# Assay type: functional
# Details: not given
row,Compound,MIC [µg/mL]
1,C[C@H]1c2c([C@@]3(C)CCCC(C)(C)C3)ccc(C(=O)O)c2C(=O)N1CC(=O)O,> 100
2,C[C@@H]1c2c([C@@]3(C)CCCC(C)(C)C3)ccc(C(=O)O)c2C(=O)N1CC(=O)O,> 100
3,CSC[S@@+]([O-])CC(CO)NC(=O)/C=C/c1c(C)[nH]c(=O)[nH]c1=O (some centres undefined) [SPARSOMYCIN],0.6

# System: Candida albicans
# Assay: Antifungal activity against Candida albicans ATCC 10231 measured after 48 hrs by bromocresol green reagent based assay
# Assay type: functional
# Details: not given
row,MIC [µg/mL],Compound
1,> 200,C[C@H]1c2c([C@@]3(C)CCCC(C)(C)C3)ccc(C(=O)O)c2C(=O)N1CC(=O)O
2,> 200,C[C@@H]1c2c([C@@]3(C)CCCC(C)(C)C3)ccc(C(=O)O)c2C(=O)N1CC(=O)O

row,Compound,MIC [µg/mL]
1,CN(CC[C@H](N)CC(=O)N[C@H]1C=C[C@H](n2ccc(N)nc2=O)O[C@@H]1C(=O)O)C(=N)N.Cl,> 200

# System: Tritrichomonas foetus
# Assay: Anti-protozoal activity against Tritrichomonas foetus KV-1 measured after 72 hrs under anaerobic conditions
# Assay type: functional
# Details: not given
row,MIC [µg/mL],Compound
1,0.2,Cc1ncc([N+](=O)[O-])n1CCO [METRONIDAZOLE]
2,> 100,C[C@H]1c2c([C@@]3(C)CCCC(C)(C)C3)ccc(C(=O)O)c2C(=O)N1CC(=O)O
3,> 100,C[C@@H]1c2c([C@@]3(C)CCCC(C)(C)C3)ccc(C(=O)O)c2C(=O)N1CC(=O)O

# System: Staphylococcus aureus
# Assay: Antibacterial activity against Staphylococcus aureus ATCC 25923 measured after 48 hrs by resazurin reagent based assay
# Assay type: functional
# Details: not given
row,MIC [µg/mL],Compound
1,12.5,CN(C)[C@@H]1C(O)=C(C(N)=O)C(=O)[C@@]2(O)C(O)=C3C(=O)c4c(O)cccc4[C@@](C)(O)[C@H]3C[C@@H]12 [TETRACYCLINE]
2,> 100,C[C@H]1c2c([C@@]3(C)CCCC(C)(C)C3)ccc(C(=O)O)c2C(=O)N1CC(=O)O
3,> 100,C[C@@H]1c2c([C@@]3(C)CCCC(C)(C)C3)ccc(C(=O)O)c2C(=O)N1CC(=O)O

# System: Saccharomyces cerevisiae
# Assay: Antifungal activity against Saccharomyces cerevisiae ATCC 9763 measured after 48 hrs by bromocresol green reagent based assay
# Assay type: functional
# Details: not given
row,MIC [µg/mL],Compound
1,> 200,C[C@H]1c2c([C@@]3(C)CCCC(C)(C)C3)ccc(C(=O)O)c2C(=O)N1CC(=O)O
2,> 200,C[C@@H]1c2c([C@@]3(C)CCCC(C)(C)C3)ccc(C(=O)O)c2C(=O)N1CC(=O)O

row,Compound,MIC [µg/mL]
1,CN(CC[C@H](N)CC(=O)N[C@H]1C=C[C@H](n2ccc(N)nc2=O)O[C@@H]1C(=O)O)C(=N)N.Cl,3.1

# System: Giardia intestinalis
# Assay: Antiparasitic activity against Giardia duodenalis WB-1B 713 assessed as parasite growth inhibition measured after 96 hrs under anaerobic conditions
# Assay type: functional
# Details: not given
row,MIC [µg/mL],Compound
1,0.3,Cc1ncc([N+](=O)[O-])n1CCO [METRONIDAZOLE]
2,50,C[C@H]1c2c([C@@]3(C)CCCC(C)(C)C3)ccc(C(=O)O)c2C(=O)N1CC(=O)O
3,100,C[C@@H]1c2c([C@@]3(C)CCCC(C)(C)C3)ccc(C(=O)O)c2C(=O)N1CC(=O)O
